Results taken from publication PMC4503722, “Novel Phenotypic Outcomes Identified for a Public Collection of Approved Drugs from a Publicly Accessible Panel of Assays” (PLoS ONE, 2015).

Tests used:
[1] = tested on: HCT116 cells treated with a GSK3β inhibitor; assay: cells; format: cell-based; conditions: for IC50/EC50, GSK3b inh pretreated_Viability ATP HCT116 (assay number 26): GSK3b inh pretreated
HT-29 = assay: cells; format: cell-based
RKO = assay: cells; format: cell-based
HCT116 = assay: cells; format: cell-based; conditions: basal
SNU-C1 = assay: cells; format: cell-based
[2] = tested on: endothelial tube formation in co-cultures of ECFCs and ADSCs treated with VEGF; assay: cells; format: cell-based, human
DLD-1 = assay: cells; format: cell-based
Colo320 = assay: cells; format: cell-based
SW480 = assay: cells; format: cell-based
[3] = tested on: ECFC/ADSC co-culture cell nuclei number
[4] = assay number 26, GSK3b inhibitor pretreated

N/C(=N\N=C\c1ccc(Cl)cc1)N/N=C/c1ccc(Cl)cc1 [NCGC00181026-02]
IC50/EC50, GSK3b inh pretreated_Viability ATP HCT116 (assay number 26) [1]: 0.3442 µM
IC50/EC50, Basal_Viability ATP HT-29 (assay number 28) (HT-29; basal): 0.6811 µM
IC50/EC50, Basal_Viability ATP RKO (assay number 29) (RKO; basal): 0.47 µM
IC50/EC50, Basal_Viability ATP HCT116 (assay number 25) (HCT116): 0.394 µM
IC50/EC50, Basal_Viability ATP SNU-C1 (assay number 30) (SNU-C1; basal): 0.2795 µM
IC50/EC50, VEGF_ADSC\ECFC Angio CD31 TubeArea (assay number 2) [2]: > 10 µM
IC50/EC50, Basal_Viability ATP DLD-1 (assay number 23) (DLD-1; basal): 0.6538 µM
IC50/EC50, Basal_Viability ATP Colo 320 (assay number 27) (Colo320; basal): 0.4583 µM
IC50/EC50, Basal_Viability ATP SW480 (assay number 24) (SW480; basal): 0.2252 µM
IC50/EC50, VEGF_ADSC\ECFC Angio Hoechst NucArea (assay number 3) [3]: > 10 µM

O=C(CCCN1CCC(O)(c2cccc(C(F)(F)F)c2)CC1)c1ccc(F)cc1 [NCGC00015983-04]
GSK3b inh pretreated_Viability ATP HCT116 IC50/EC50 [1, 4]: > 20 µM
Basal_Viability ATP HT-29 IC50/EC50 (HT-29; assay number 28, basal): > 20 µM
Basal_Viability ATP RKO IC50/EC50 (RKO; assay number 29, basal): > 20 µM
Basal_Viability ATP HCT116 IC50/EC50 (HCT116; assay number 25): > 20 µM
Basal_Viability ATP SNU-C1 IC50/EC50 (SNU-C1; assay number 30, basal): > 20 µM
VEGF_ADSC\ECFC Angio CD31 TubeArea IC50/EC50 [2]: > 10 µM
Basal_Viability ATP DLD-1 IC50/EC50 (DLD-1; assay number 23, basal): > 20 µM
Basal_Viability ATP Colo 320 IC50/EC50 (Colo320; assay number 27, basal): > 20 µM
Basal_Viability ATP SW480 IC50/EC50 (SW480; assay number 24, basal): > 20 µM
VEGF_ADSC\ECFC Angio Hoechst NucArea IC50/EC50 [3]: > 10 µM

CN1CCN(CCCN2c3ccccc3Sc3ccc(S(=O)(=O)N(C)C)cc32)CC1 [NCGC00179625-03]
IC50/EC50, GSK3b inh pretreated_Viability ATP HCT116 (assay number 26) [1]: > 20 µM
IC50/EC50, Basal_Viability ATP HT-29 (assay number 28) (HT-29; basal): > 20 µM
IC50/EC50, Basal_Viability ATP RKO (assay number 29) (RKO; basal): 5.9932 µM
IC50/EC50, Basal_Viability ATP HCT116 (assay number 25) (HCT116): > 20 µM
IC50/EC50, Basal_Viability ATP SNU-C1 (assay number 30) (SNU-C1; basal): 2.1198 µM
IC50/EC50, VEGF_ADSC\ECFC Angio CD31 TubeArea (assay number 2) [2]: > 10 µM
IC50/EC50, Basal_Viability ATP DLD-1 (assay number 23) (DLD-1; basal): 14.5523 µM
IC50/EC50, Basal_Viability ATP Colo 320 (assay number 27) (Colo320; basal): 8.1661 µM
IC50/EC50, Basal_Viability ATP SW480 (assay number 24) (SW480; basal): > 20 µM
IC50/EC50, VEGF_ADSC\ECFC Angio Hoechst NucArea (assay number 3) [3]: > 10 µM

CCCCCCCCCCCCCCCCCC[N+](C)(C)CCC[Si](OC)(OC)OC.[Cl-] [NCGC00166112-02]
GSK3b inh pretreated_Viability ATP HCT116 IC50/EC50 ([1]; assay number 26, GSK3b inhibitor pretreated, concentration response): > 20 µM
Basal_Viability ATP HT-29 IC50/EC50 (HT-29; assay number 28, concentration response): > 20 µM
Basal_Viability ATP RKO IC50/EC50 (RKO; assay number 29, concentration response): > 20 µM
Basal_Viability ATP HCT116 IC50/EC50 (HCT116; assay number 25, concentration response): > 20 µM
Basal_Viability ATP SNU-C1 IC50/EC50 (SNU-C1; assay number 30, concentration response): > 20 µM
VEGF_ADSC\ECFC Angio CD31 TubeArea IC50/EC50 [2]: > 10 µM
Basal_Viability ATP DLD-1 IC50/EC50 (DLD-1; assay number 23, concentration response): > 20 µM
Basal_Viability ATP Colo 320 IC50/EC50 (Colo320; assay number 27, concentration response): > 20 µM
Basal_Viability ATP SW480 IC50/EC50 (SW480; assay number 24, concentration response): > 20 µM
VEGF_ADSC\ECFC Angio Hoechst NucArea IC50/EC50 [3]: > 10 µM

COC(=O)c1ccccc1C(=O)OC [NCGC00090692-06]
IC50 ([1]; assay number 26, GSK3b inhibitor pretreated, read-out: GSK3b inh pretreated_Viability ATP HCT116 summarized IC50): > 20 µM
IC50 (HT-29; assay number 28, basal, read-out: Basal_Viability ATP HT-29 summarized IC50): > 20 µM
IC50 (RKO; assay number 29, basal, read-out: Basal_Viability ATP RKO summarized IC50): > 20 µM
IC50 (HCT116; assay number 25, read-out: Basal_Viability ATP HCT116 summarized IC50): > 20 µM
IC50 (SNU-C1; assay number 30, basal, read-out: Basal_Viability ATP SNU-C1 summarized IC50): > 20 µM
IC50 ([2]; read-out: VEGF_ADSC\ECFC Angio CD31 TubeArea summarized IC50): > 10 µM
IC50 (DLD-1; assay number 23, basal, read-out: Basal_Viability ATP DLD-1 summarized IC50): > 20 µM
IC50 (Colo320; assay number 27, basal, read-out: Basal_Viability ATP Colo 320 summarized IC50): > 20 µM
IC50 (SW480; assay number 24, basal, read-out: Basal_Viability ATP SW480 summarized IC50): > 20 µM
IC50 ([3]; read-out: VEGF_ADSC\ECFC Angio Hoechst NucArea summarized IC50): > 10 µM

CCCCCCCCOC(=O)c1ccccc1C(=O)OCCCCCCCC [NCGC00090781-05]
GSK3b inh pretreated_Viability ATP HCT116 IC50/EC50 [1, 4]: > 20 µM
Basal_Viability ATP HT-29 IC50/EC50 (HT-29; assay number 28, basal): > 20 µM
Basal_Viability ATP RKO IC50/EC50 (RKO; assay number 29, basal): > 20 µM
Basal_Viability ATP HCT116 IC50/EC50 (HCT116; assay number 25): > 20 µM
Basal_Viability ATP SNU-C1 IC50/EC50 (SNU-C1; assay number 30, basal): > 20 µM
VEGF_ADSC\ECFC Angio CD31 TubeArea IC50/EC50 [2]: > 10 µM
Basal_Viability ATP DLD-1 IC50/EC50 (DLD-1; assay number 23, basal): > 20 µM
Basal_Viability ATP Colo 320 IC50/EC50 (Colo320; assay number 27, basal): > 20 µM
Basal_Viability ATP SW480 IC50/EC50 (SW480; assay number 24, basal): > 20 µM
VEGF_ADSC\ECFC Angio Hoechst NucArea IC50/EC50 [3]: > 10 µM

CSc1ccc2c(c1)N(CCC1CCCCN1C)c1ccccc1S2 (stereo not shown) [NCGC00016059-13]
GSK3b inh pretreated_Viability ATP HCT116 IC50/EC50 [1, 4]: 8.1146 µM
Basal_Viability ATP HT-29 IC50/EC50 (HT-29; assay number 28, basal): 5.8969 µM
Basal_Viability ATP RKO IC50/EC50 (RKO; assay number 29, basal): 5.4868 µM
Basal_Viability ATP HCT116 IC50/EC50 (HCT116; assay number 25): > 20 µM
Basal_Viability ATP SNU-C1 IC50/EC50 (SNU-C1; assay number 30, basal): 2.905 µM
VEGF_ADSC\ECFC Angio CD31 TubeArea IC50/EC50 [2]: > 10 µM
Basal_Viability ATP DLD-1 IC50/EC50 (DLD-1; assay number 23, basal): > 20 µM
Basal_Viability ATP Colo 320 IC50/EC50 (Colo320; assay number 27, basal): 7.9244 µM
Basal_Viability ATP SW480 IC50/EC50 (SW480; assay number 24, basal): 3.7076 µM
VEGF_ADSC\ECFC Angio Hoechst NucArea IC50/EC50 [3]: 9.242 µM
